In patent publication US20250032476A1, “ALPHA-2A ADRENERGIC RECEPTOR MODULATORS AND USES THEREOF” (The Regents of the University of California, priority 2021, published 2025):
Like-named read-outs stand apart in the source and are kept apart here.

Experiments:
[1] = target: T1, ALPHA-2A ADRENERGIC RECEPTOR (Homo sapiens (Human), UniProt P08913); experiment: Gi recruitment (G protein); assay type: cell-based; settings: Gi recruitment; for Emax: read-out: G protein Emax (%)
[2] = target: T1, ALPHA-2A ADRENERGIC RECEPTOR; experiment: Arrestin recruitment; assay type: cell-based; settings: for Emax: Tables 7-9
human α2AAR [3] = target: T2, human α2AAR (Homo sapiens (Human), UniProt P08913); experiment: Gαi G protein activation, BRET biosensor assay in HEK293T cells; settings: for Emax: HEK-293T
T2 sequence (P08913 whole entry): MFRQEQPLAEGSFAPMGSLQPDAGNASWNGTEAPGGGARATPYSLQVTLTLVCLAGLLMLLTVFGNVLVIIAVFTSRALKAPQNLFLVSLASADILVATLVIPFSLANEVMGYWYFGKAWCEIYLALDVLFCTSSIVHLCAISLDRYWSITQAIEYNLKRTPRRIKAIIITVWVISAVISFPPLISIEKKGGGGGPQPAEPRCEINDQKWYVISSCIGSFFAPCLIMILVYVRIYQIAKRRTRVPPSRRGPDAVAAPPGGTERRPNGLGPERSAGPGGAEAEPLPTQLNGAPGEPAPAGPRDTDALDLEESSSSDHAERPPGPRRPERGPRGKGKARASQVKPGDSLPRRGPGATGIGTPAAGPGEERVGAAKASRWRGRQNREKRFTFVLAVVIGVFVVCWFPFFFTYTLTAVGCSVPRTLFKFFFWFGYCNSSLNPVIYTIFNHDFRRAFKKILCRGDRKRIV

mice = experiment: Rotarod motor test (motor impairment and sedation); assay type: in vivo; settings: equi-analgesic doses (DEX: higher doses)
human α2AAR [4] = target: T2, human α2AAR; experiment: DiscoverX HitHunter cAMP G-protein activation assay; settings: read-out: Gi/o Emax
Method: DiscoverX HitHunter cAMP G-protein activation assay. […] Freezer stock cAMP Hunter cell lines were expanded, then seeded in a total volume of 20 uL into white walled, 384-well microplates and incubated at 37° C. prior to testing. For agonist determination, cells were incubated with compound samples in the presence of EC80 forskolin to induce response. Media was aspirated from cells and replaced with 15 uL 2:1 HBSS/10 mM Hepes: cAMP XS+Ab reagent. Intermediate dilution of sample stocks was performed to generate 4× sample in assay buffer containing 4× EC80 forskolin. […] Finally assay vehicle concentration was 1%. After sample incubation assay signal was generated through incubation with 20 uL cAMP XS+ED/CL lysis cocktail for one hour followed by incubation with 20 uL cAMP XS+EA reagent for three hours at room temperature. Microplates were read following signal generation with a PerkinElmer Envision Instrument for chemiluminescent signal detection. Compound activity was analyzed using CBIS data analysis suite. For Gi agonist mode, percentage activity is calculated using the following formula: % Activity=100%×(1−(mean RLU of test sample−mean RLU of MAX control)/(mean RLU of vehicle control−mean RLU of MAX control)). […] Each measurement was done in duplicate.
DiscoverX HitHunter cAMP G-protein activation assay. […] Freezer stock cAMP Hunter cell lines were expanded, then seeded in a total volume of 20 μL into white walled, 384-well microplates and incubated at 37° C. prior to testing. For agonist determination, cells were incubated with compound samples in the presence of EC50 forskolin to induce response. Media was aspirated from cells and replaced with 15 μL 2:1 HBSS/10 mM Hepes: cAMP XS+Ab reagent. Intermediate dilution of sample stocks was performed to generate 4× sample in assay buffer containing 4× EC80 forskolin. […] Finally assay vehicle concentration was 1%. After sample incubation assay signal was generated through incubation with 20 μL cAMP XS+ED/CL lysis cocktail for one hour followed by incubation with 20 μL cAMP XS+EA reagent for three hours at room temperature. Microplates were read following signal generation with a PerkinElmer Envision Instrument for chemiluminescent signal detection. Compound activity was analyzed using CBIS data analysis suite. For Gi agonist mode, percentage activity is calculated using the following formula: % Activity=100%×(1−(mean RLU of test sample−mean RLU of MAX control)/(mean RLU of vehicle control−mean RLU of MAX control)). […] Each measurement was done in duplicate.

human α2AAR [5] = target: T2, human α2AAR; experiment: β-arrestin-2 recruitment, BRET biosensor assay in HEK293T cells; settings: HEK-293T, read-out: β-arrestin-2 Emax
Method: Bioluminescense resonance energy transfer. G protein mediated activation of human α2AAR and D2long was monitored with Gαi1-RLucII (71, 72) together with Gβ1 and Gγ1-GFP10. Arrestin recruitment was performed by enhanced bystander BRET using CAAX-rGFP and β-arrestin-2-RLucII as biosensors (all biosensors are provided from M. Bouvier, Université de Montréal, Canada) (71, 73) in the presence of GRK2 as described (66, 74). In brief, HEK293T cells were transfected with a total amount of 3.3 μg DNA per 10^6 cells using linear polyethyleneimine (PEI, Polysciences, 3:1 PEI:DNA ratio) and transferred into 96-well half-area plates (Greiner, Frickenhausen, Germany) at a density of 10,000 cells per well and incubated for 48 hrs. Medium was exchanged with PBS (Hank's balanced salt solution) and cells were stimulated with ligands at 37° C. for 10 min for Gαi stimulation or arrestin recruitment, respectively.

human α2AAR [6] = target: T2, human α2AAR; experiment: Radioligand competition binding to human α2AAR (HEK293T membranes, [3H]RX82,1002); settings: human α2AAR; mean ± SEM (Table 3); read-out: Ki
[7] = Tables 7-9, read-out: G protein EC50

T1 sequence (P08913 whole entry): as above

| SMILES | EC50 [1, 7] | Emax ([1]; Tables 7-9) | Emax [2] | other results |
| --- | --- | --- | --- | --- |
| O=C1CCc2ccc(C3=CCCNC3)cc21 [TP81] | 3 µM | 79% | < 10% | – |
| C=C1CCc2cc(C3=CCCNC3)ccc21 [TP105, 5-(1-Methylene-2,3-dihydro-1H-inden-5-yl)-1,2,3,6-tetrahydropyridine] | – | < 5% | < 5% | – |
| NC[C@H](O)c1ccc(O)c(O)c1 [NorEpi, norepinephrine, reference compound] | – | – | – | Emax (human α2AAR [3]; read-out: Gαi Emax): 100% |
| Cc1cccc([C@H](C)c2cnc[nH]2)c1C [DEX, dexmedetomidine, reference compound] | – | – | – | Motor impairment / sedation in rotarod test (mice): significant impairment and complete sedation at higher doses; Emax (human α2AAR [4]): 76 ± 3%; Emax (human α2AAR [3]; read-out: Gαi Emax): 105 ± 4%; Emax (human α2AAR [5]): 60 ± 3% |
| c1ccc2c(Nc3ccncc3)ncnc2c1 | – | – | – | Ki (human α2AAR [6]): 6.6 ± 1.8 µM; Emax (human α2AAR [3]; read-out: Gi Emax ± SEM): < 5% |
| Nc1ccc(-c2cc3cn[nH]c3cc2Cl)cn1 [TP74, 5-(6-Chloro-1H-indazol-5-yl)pyridin-2-amine] | 0.2 µM | 64% | < 10% | – |
| Nc1ccc(-c2ccc3[nH]ncc3c2F)cn1 [TP84, 5-(4-Fluoro-1H-indazol-5-yl)pyridin-2-amine] | 1.1 µM | 49% | < 10% | – |
| Nc1ccnc(Cc2ccc(F)cc2)c1 [TP94, 2-(4-Fluorobenzyl)pyridin-4-amine] | 5 µM | 19% | < 10% | – |
| Brc1c(NC2=NCCN2)ccc2nccnc12 [Brimonidine, brimonidine, reference compound] | – | – | – | Emax (human α2AAR [4]): 107 ± 7% |
| c1ccc2c(Oc3ccncc3)cccc2c1 | – | – | – | Ki (human α2AAR [6]): 1.8 ± 0.73 µM; Emax (human α2AAR [3]; read-out: Gi Emax @ 0.1 mM): 43% |
| CC1=CCc2cc(C3=CCCNC3)ccc21 [TP97, 5-(3-Methyl-1H-inden-6-yl)-1,2,3,6-tetrahydropyridine] | – | < 10% | < 5% | – |
| N#Cc1ccc(C2=CCCNC2)c2cccnc12 [PS-NN05] | – | < 5% | < 10% | – |
| c1ccc(Nc2cncc3ccccc23)cc1 | – | – | – | Ki (human α2AAR [6]): > 10 µM; Emax (human α2AAR [3]; read-out: Gi Emax @ 0.1 mM): 57% |
| Nc1ccc(-c2cc(Cl)c3[nH]ncc3c2)cn1 [TP73, 5-(7-Chloro-1H-indazol-5-yl)pyridin-2-amine] | 8.7 µM | 27% | < 10% | – |
| O=C1NCCc2c(Nc3ccncc3)cccc21 [PS86] | – | – | – | Ki (human α2AAR [6]): 1.2 ± 0.56 µM; functional classification (agonist / weak agonist) ([1]; Table 6, result in words): agonist; EC50 ([1]; Table 6, read-out: EC50): 3.2 µM; EC50 (human α2AAR [3]; Gi EC50 ± SE, BRET biosensor, human α2AAR (Table 3)): 3.4 µM; Emax (human α2AAR [3]; read-out: Gi Emax ± SEM): 91% |
| Nc1ccc(-c2ccc3[nH]ncc3c2Cl)cn1 [TP85, 5-(4-Chloro-1H-indazol-5-yl)pyridin-2-amine] | 0.22 µM | 81% | – | Arrestin effect at 100 μM ([2]; at 100 μM): 34% at 100 μM |
| O=C1CCc2cc(C3=CCCNC3)ccc21 [TP90] | – | < 5% | < 5% | – |
